Measured values as given in US9243247B2, “Composition for promoting apoptosis or inhibiting cell growth, comprising epstein-barr virus microrna” (Catholic University Industry Academic Cooperation Foundation, priority 2011, dated 2016).

Columns and labels:
Format in all cases: cell-based
[1] = test system: AGS cell strain; test: Effect on cell cycle (propidium iodide staining, FACS, sub G1); details: mimic 10 nM, 10 uM 5-FU 24 h after transfection, then 48 hours, relative to scrambled control (=1)
Method: The AGS cells were divided into a 96-well plate such that 2×10^5 AGS cells were allocated to each well, and synthesized miRNAs (10 nM) were transfected and cultured at 37° C. in an incubator. Twenty four hours after the transfection, 10 uM of 5-FU, which is an anti-cancer agent, was treated in one case or not treated in another case, and then the resulting mixture was cultured in an incubator at 37° C. for 48 hours. The cells were detached by using Trypsin-EDTA and washed with PBS two times.
Immediately after the AGS cell strains, which are EBV-negative cell strains, were divided into a 6-well plate such that 2×10^5 AGS cells were allocated to each well, a synthesized miRNA (10 nM) was transfected by using G-fectin and cultured at 37° C. in an incubator. Twenty four hours after the transfection, 10 uM of 5-FU was treated and the resulting mixture was cultured at 37° C. in an incubator for 48 hours. The cells were detached by using Trypsin-EDTA and washed with PBS two times. Afterwards, DNA was stained by propidium iodide staining and the ratio of cells where cell cycle was changed was investigated by FACS.

[2] = test system: AGS cell strain; test: Cell growth test (CCK-8 assay) after transfection of BART miRNA mimics; details: mimic 10 nM, 72 hours after transfection, relative to scrambled control (=1), n=9
Method: An AGS cell strain (Korean Cell Line Bank), which is a stomach cancer cell strain, was cultured in an RPMI1640 (Gibco) culture medium including 10% fetal bovine serum. Mature type synthesized BART miRNAs were transfected to the AGS cell strain by using G-fectin (Genolution) according to a protocol of the manufacture.
To investigate the effect of individual EBV BART miRNAs on the AGS cell strain, the synthesized miRNAs were transfected to the AGS cell strain and, after 72 hours, cells were counted by CCK-8 assay.
Immediately after the AGS cell strain, which is an EBV-negative cell strain, was divided into 96-well plate having 1×10^3 cells/well, a synthesized miRNA (10 nM) was transfected by using G-fectin. After the transfection, according to the experimental objective, the cells were cultured at 37° C. in an incubator, and then CCK-8 was divided among the wells by allocating 10 μl of CCK-8 to each well and the resulting mixture was cultured in an incubator at 37° C. for two hours. Then, the light absorbance was measured with an ELISA measuring instrument.
By the method described in Example 3, miR-BART5-5p mimic or miR-BART15-3p mimic (10 nM) were transfected to the AGS cell strain, and the effect thereof on cell growth was investigated over time.
miR-BART5-5p, miR-BART15-3p, and miR-BART20-3p were transfected to the AGS cell strain (1×10^3 cells/well) in a concentration of 1, 3, 10, and 30 nM, and the effect on cell growth was investigated. Immediately after the AGS cell strain was divided into a 96-well plate such that 1×10^3 AGS cells were allocated to each well, a synthesized miRNA was transfected by using G-fectin. Seventy two hours after the transfection, CCK-8 was divided among the wells by allocating 10 μl of CCK-8 to each well, and the resulting mixture was cultured at 37° C. in an incubator for two hours.

[3] = test system: AGS cell strain; test: Measurement of apoptosis (Annexin V staining, FACS); details: for Relative Apoptotic cell: AGS, mimic 10 nM, 10 uM 5-FU 24 h after transfection, then 48 hours, Annexin V, relative to scrambled control (=1), n=9; for effect on cell growth and apoptosis (summary statement): mimics transfected to AGS, tumor cell strain not infected with EBV
Method: Immediately after the AGS cell strain, which is an EBV-negative cell strain, was divided was divided into a 6-well plate such that 2×10^5 AGS cells were allocated to each well, a synthesized miRNA (10 nM) was transfected by using G-fectin and the resulting mixture was cultured at 37 t in an incubatorTwenty four hours after the transfection, 10 uM of 5-FU was treated and the resulting mixture was cultured in an incubator at 37° C. for 48 hours. The cells were detached by using Trypsin-EDTA and washed with PBS two times. Afterwards, the cells were treated with a PE Annexin V Apoptosis Detection Kit and the changed ratio of apoptotic cell was investigated by FACS (FIG. 7).
Immediately after the AGS cell strain, which is an EBV-negative cell strain, is divided into a 6-well plate such that 2×10^5 AGS cells were allocated to each well, a synthesized miRNA (10 nM) was transfected by using G-fectin and the resulting mixture was cultured at 37° C. Twenty four hours after the transfection, 10 uM of 5-FU, which is an anti-cancer agent, was treated and the resulting mixture was cultured in an incubator at 37° C. for 48 hours. The cells were detached by using Trypsin-EDTA and washed with PBS two times. Afterwards, the cells were treated with a PE Annexin V Apoptosis Detection Kit and the ratio of cells where apoptosis took place was measured by FACS.

Row | Substance | Relative Sub G1 [1] | Relative Cell Growth [2] | Relative Apoptotic cell [3] | also measured
1 | BART7-3p: EBV BART miRNA mimic, double stranded RNA; sense SEQ NO: 43, antisense SEQ NO: 44 (sense CAUCAUAGUCCAGUGUCCAGGG; antisense CCCUGGACACUGGACUAUGAUG; chemistry not given here) | 0.9393 | 1.156 | 1.107 | 
2 | BART7-5p: EBV BART miRNA mimic, double stranded RNA; sense SEQ NO: 41, antisense SEQ NO: 42 (sense CCUGGACCUUGACUAUGAAACA; antisense UGUUUCAUAGUCAAGGUCCAGG; chemistry not given here) | 0.9918 | 1.539 | 1.097 | Relative Apoptotic cell ([3]; listed as 7-5p): significantly higher; effect on cell growth and apoptosis (summary statement) [3]: inhibit cell growth and promote apoptosis
3 | BART8-3p: EBV BART miRNA mimic, double stranded RNA; sense SEQ NO: 47, antisense SEQ NO: 48 (sense GUCACAAUCUAUGGGGUCGUAGA; antisense UCUACGACCCCAUAGAUUGUGAC; chemistry not given here) | 0.9616 | 1.396 | 1.072 | 
4 | BART8-5p: EBV BART miRNA mimic, double stranded RNA; sense SEQ NO: 45, antisense SEQ NO: 46 (sense UACGGUUUCCUAGAUUGUACAG; antisense CUGUACAAUCUAGGAAACCGUA; chemistry not given here) | 1.013 | 1.448 | 0.9757 | 
5 | BART9-3p: EBV BART miRNA mimic, double stranded RNA; sense SEQ NO: 51, antisense SEQ NO: 52 (sense UAACACUUCAUGGGUCCCGUAGU; antisense ACUACGGGACCCAUGAAGUGUUA; chemistry not given here) | 0.8669 | 1.569 | 0.7948 | 
6 | BART9-5p: EBV BART miRNA mimic, double stranded RNA; sense SEQ NO: 49, antisense SEQ NO: 50 (sense UACUGGACCCUGAAUUGGAAAC; antisense GUUUCCAAUUCAGGGUCCAGUA; chemistry not given here) | 1.005 | 1.482 | 1.25 | Relative Apoptotic cell ([3]; listed as 9-5p): significantly higher; effect on cell growth and apoptosis (summary statement) [3]: inhibit cell growth and promote apoptosis
7 | BART10-3p: EBV BART miRNA mimic, double stranded RNA; sense SEQ NO: 59, antisense SEQ NO: 60 (sense UACAUAACCAUGGAGUUGGCUGU; antisense ACAGCCAACUCCAUGGUUAUGUA; chemistry not given here) | 0.8394 | 1.591 | 0.8971 | 
8 | BART10-5p: EBV BART miRNA mimic, double stranded RNA; sense SEQ NO: 57, antisense SEQ NO: 58 (sense GCCACCUCUUUGGUUCUGUACA; antisense UGUACAGAACCAAAGAGGUGGC; chemistry not given here) | 0.833 | 1.646 | 0.8373 | 
9 | BART11-3p: EBV BART miRNA mimic, double stranded RNA; probably sense SEQ NO: 63, antisense SEQ NO: 64 (printed as BART11-5p) (sense ACGCACACCAGGCUGACUGCC; antisense GGCAGUCAGCCUGGUGUGCGU; chemistry not given here) | 1.128 | 0.9459 | 1.058 | 
10 | BART11-5p: EBV BART miRNA mimic, double stranded RNA; sense SEQ NO: 61, antisense SEQ NO: 62 (sense UCAGACAGUUUGGUGCGCUAGUUG; antisense CAACUAGCGCACCAAACUGUCUGA; chemistry not given here) | 1.081 | 1.08 | 1.006 | 
11 | BART12-3p: EBV BART miRNA mimic, double stranded RNA; sense SEQ NO: 67, antisense SEQ NO: 68 (sense UCCUGUGGUGUUUGGUGUGGUU; antisense AACCACACCAAACACCACAGGA; chemistry not given here) | 1.317 | 1.102 | 1.084 | Relative Sub G1 ([1]; listed as 12-3p): increased
12 | BART12-5p: EBV BART miRNA mimic, double stranded RNA; sense SEQ NO: 65, antisense SEQ NO: 66 (sense ACCCGCCCAUCACCACCGGAC; antisense GUCCGGUGGUGAUGGGCGGGU; chemistry not given here) | 1.135 | 1.159 | 0.9458 | Relative Sub G1 ([1]; listed as 12-5p): increased
13 | BART13-3p: EBV BART miRNA mimic, double stranded RNA; sense SEQ NO: 79, antisense SEQ NO: 80 (sense UGUAACUUGCCAGGGACGGCUGA; antisense UCAGCCGUCCCUGGCAAGUUACA; chemistry not given here) | 0.9813 | 1.255 | 1.187 | Relative Apoptotic cell ([3]; listed as 13-3p): significantly higher; effect on cell growth and apoptosis (summary statement) [3]: inhibit cell growth and promote apoptosis
14 | BART13-5p: EBV BART miRNA mimic, double stranded RNA; sense SEQ NO: 77, antisense SEQ NO: 78 (sense AACCGGCUCGUGGCUCGUACAG; antisense CUGUACGAGCCACGAGCCGGUU; chemistry not given here) | 1.178 | 1.326 | 1.077 | Relative Sub G1 ([1]; listed as 13-5p): increased; Relative Apoptotic cell ([3]; listed as 13-5p): significantly higher; effect on cell growth and apoptosis (summary statement) [3]: inhibit cell growth and promote apoptosis
